Format in all cases: cell-based
The test system of test [1] is MCF7 (human breast cancer) cell line. Nature of the test: In vitro cytotoxicity against MCF7 cell line. To be noted: from curves of complex concentration vs percentage viability.
Test [2] deals with HCT15 (human colon adenocarcinoma) cell line. Nature of the test: In vitro cytotoxicity against HCT15 cell line. To be noted: from curves of complex concentration vs percentage viability.
For test [3], the system named is A549 (human lung carcinoma) cell line. Description: In vitro cytotoxicity against A549 cell line. To be noted: from curves of complex concentration vs percentage viability.
The subject of test [4] is HeLa (human cervical cancer) cell line. Nature of the test: In vitro cytotoxicity against HeLa cell line. To be noted: read-out: IC50 values against HeLa cell line (unit inferred).

Molecules are shown by their SMILES.

For `N.N.[Cl][Pt][Cl]` [Cisplatin, cisplatin], the IC50 was 22.4 µM in test [1], 29.5 µM in test [2], 41.6 µM in test [3] and 19.4 µM in test [4].

In general, IC50 refers to the point on the concentration scale where inhibition reaches its midpoint.
